The text below walks through data of patent US20090306201A1, “SELECTIVE INHIBITORS FOR TRANSFERASES” (University of Medicine and Dentistry of New Jersey, priority 2006, published 2009).

The test system of one data set is H3K27me3. Nature of the data set: Global histone lysine methylation pattern in treated cells, immunoblot, other marks (H3K27me3). The conditions noted are these: HeLa cells, acid-extracted histones, immunoblotting. It is filed as cell-based. The method, then:
(§1) Compounds that show low IC50 values for specific inhibition of single HKMTs were pre-selected for cell culture based toxicity and growth inhibition. HeLa cells were seeded in a concentration of 1×10^5 cell/ml in Dulbecco's modified Eagle medium supplemented with 10% Bovine serum, 2 mM glutamine, and penicillin-streptomycin solution. After 24 hours, the medium was supplemented with various compound concentrations. After an additional 48 hours, cells were harvested. Viable cells were stained with Trypan-Blue and counted. Based on the number of living cells treated with a compound in comparison to the cell number of cells treated with DMSO, a toxicity index was calculated for each compound.
(§2) Compounds with a low toxicity index were used for cell viability tests (FIG. 3). The cells harvested from this cell viability test were analyzed using two techniques. In the first technique, living cells were counted as described above and growth curves plotted for cells treated with DMSO or a given compound. (FIG. 4). In the second technique, histones were isolated from cells upon treatment of compounds, and their effect on global histone lysine methylation patterns was analyzed. Harvested cells were subjected to an acid extraction procedure for histones. […] Histones were resolved by SDS-PAGE, transferred to nitrocellulose, and analyzed by immunoblotting using histone-modification-state specific antibodies.

The next data set concerns the target T1, EZH2 (Homo sapiens, UniProt Q15910).
T1 construct: made in house
Nature of the data set: HKMT-inhibitor (HMT) assay, EZH2. It is filed as biochemical, Mammalian. Particulars: meaning of the pair not explained. How it is done: (§3) Compounds were initially screened for their ability to inhibit the activity of various lysine methyltransferases in vitro using a biochemical HMT-assay. Mammalian HKMTs were produced and purified as recombinant affinity-tagged proteins using a bacterial or baculovirus expression system.
(§4) The HKMT-inhibitor assay was as follows: In a final reaction volume of 25 μl, 50-100 ng recombinant HKMT protein was incubated at 30° C. for 60 minutes in a reaction buffer containing 50 mM Tris-HCl, pH 8.5, 5 mM MgCl2, 4 mM DTT, 1 μM [^3H]-labeled S-adenosyl-L-methionine ([^3H]SAM, 82.0 Ci/mmol, 1.0 mCi/ml, Amersham Pharmacia Biotech) and 2 μg of substrate (histone octamers or oligonucleosomes). A constant HKMT protein concentration was tested against increasing amounts of compound dissolved in DMSO. As a control an HKMT-inhibitor assay was performed in the presence of 0.5 μl of DMSO (end concentration of DMSO in the reaction= 2%). The reaction was stopped by the addition of 6 μl 5×SDS sample buffer (60 mM Tris-HCl, pH 6.8, 25% glycerol, 2% SDS, 0.05% bromphenol blue, 14.4 mM 6-Mercaptoethanol), and the proteins were separated on a 12% SDS-polyacrylamide gel. Proteins were transferred onto an Immobilon-P membrane (Millipore) and visualized by Coomassie blue staining. The membrane was then sprayed with EN3HANCE (NEN) and exposed to Kodak XAR film overnight. Coomassie blue stained histone bands were cut from the membrane and subjected to scintillation counting. All assays were performed in duplicate and the average of two experiments was used for the calculation of IC50 values. Only compounds with IC50<10 μM were selected for further experiments.

In data set [1] the test system is global histone H4 lysine 20 monomethylation (H4K20me1). Nature of the data set: Global histone lysine methylation pattern in treated cells, immunoblot, H4K20me1. It is filed as cell-based. The conditions noted are these: HeLa cells, acid-extracted histones, immunoblotting. How it is done:
as §1, §2
In general terms: A western blot detects proteins with antibodies after separation by electrophoresis.

The next data set addresses T2, PRSET-7 (Homo sapiens, UniProt Q9NQR1).
T2 construct: made in house
T2 sequence (Q9NQR1 1-393): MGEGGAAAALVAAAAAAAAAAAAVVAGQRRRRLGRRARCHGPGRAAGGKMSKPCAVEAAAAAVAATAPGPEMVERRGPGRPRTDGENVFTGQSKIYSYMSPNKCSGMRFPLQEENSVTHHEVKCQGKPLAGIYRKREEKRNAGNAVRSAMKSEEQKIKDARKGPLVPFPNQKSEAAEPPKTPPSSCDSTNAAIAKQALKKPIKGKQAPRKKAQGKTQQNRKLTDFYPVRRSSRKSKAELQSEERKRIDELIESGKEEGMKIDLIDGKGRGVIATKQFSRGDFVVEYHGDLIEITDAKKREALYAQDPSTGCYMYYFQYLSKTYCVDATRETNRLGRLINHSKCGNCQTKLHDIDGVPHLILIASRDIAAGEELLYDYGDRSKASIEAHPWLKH
Nature of the data set: HKMT-inhibitor (HMT) assay, PRSET-7. The class given is biochemical, Mammalian. The conditions noted are these: recombinant HKMT, [3H]SAM, histone octamers or oligonucleosomes, average of duplicate. The method, then: as §3
as §4, with “Coomassie blue stained histone bands were cut from the membrane and subjected to scintillation counting. All assays were performed in duplicate and the average of two experiments was used for the calculation of IC50 values. Only compounds with IC50<10 μM were selected for further experiments.” left out

The target in a further data set is T3, SET7/9 (Homo sapiens, UniProt Q8WTS6).
T3 construct: made in house
T3 sequence (Q8WTS6 1-366): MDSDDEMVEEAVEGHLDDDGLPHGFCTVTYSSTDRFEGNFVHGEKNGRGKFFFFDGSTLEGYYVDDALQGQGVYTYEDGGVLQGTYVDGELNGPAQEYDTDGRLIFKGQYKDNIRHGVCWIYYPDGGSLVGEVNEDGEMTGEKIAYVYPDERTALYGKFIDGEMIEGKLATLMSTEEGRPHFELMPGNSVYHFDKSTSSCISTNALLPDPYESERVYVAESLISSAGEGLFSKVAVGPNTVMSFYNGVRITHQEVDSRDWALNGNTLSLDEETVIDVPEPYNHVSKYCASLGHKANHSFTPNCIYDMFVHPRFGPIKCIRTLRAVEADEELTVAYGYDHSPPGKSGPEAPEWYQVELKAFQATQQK
Nature of the data set: HKMT-inhibitor (HMT) assay, SET7/9. It is filed as biochemical, Mammalian. The conditions noted are these: recombinant HKMT, [3H]SAM, histone octamers or oligonucleosomes, average of duplicate. How it is done:
as §3
as §4, with “Coomassie blue stained histone bands were cut from the membrane and subjected to scintillation counting. All assays were performed in duplicate and the average of two experiments was used for the calculation of IC50 values. Only compounds with IC50<10 μM were selected for further experiments.” left out

The target of a further data set is T4, G9a (Homo sapiens, UniProt Q96KQ7).
T4 construct: made in house
T4 sequence (Q96KQ7 1-1210): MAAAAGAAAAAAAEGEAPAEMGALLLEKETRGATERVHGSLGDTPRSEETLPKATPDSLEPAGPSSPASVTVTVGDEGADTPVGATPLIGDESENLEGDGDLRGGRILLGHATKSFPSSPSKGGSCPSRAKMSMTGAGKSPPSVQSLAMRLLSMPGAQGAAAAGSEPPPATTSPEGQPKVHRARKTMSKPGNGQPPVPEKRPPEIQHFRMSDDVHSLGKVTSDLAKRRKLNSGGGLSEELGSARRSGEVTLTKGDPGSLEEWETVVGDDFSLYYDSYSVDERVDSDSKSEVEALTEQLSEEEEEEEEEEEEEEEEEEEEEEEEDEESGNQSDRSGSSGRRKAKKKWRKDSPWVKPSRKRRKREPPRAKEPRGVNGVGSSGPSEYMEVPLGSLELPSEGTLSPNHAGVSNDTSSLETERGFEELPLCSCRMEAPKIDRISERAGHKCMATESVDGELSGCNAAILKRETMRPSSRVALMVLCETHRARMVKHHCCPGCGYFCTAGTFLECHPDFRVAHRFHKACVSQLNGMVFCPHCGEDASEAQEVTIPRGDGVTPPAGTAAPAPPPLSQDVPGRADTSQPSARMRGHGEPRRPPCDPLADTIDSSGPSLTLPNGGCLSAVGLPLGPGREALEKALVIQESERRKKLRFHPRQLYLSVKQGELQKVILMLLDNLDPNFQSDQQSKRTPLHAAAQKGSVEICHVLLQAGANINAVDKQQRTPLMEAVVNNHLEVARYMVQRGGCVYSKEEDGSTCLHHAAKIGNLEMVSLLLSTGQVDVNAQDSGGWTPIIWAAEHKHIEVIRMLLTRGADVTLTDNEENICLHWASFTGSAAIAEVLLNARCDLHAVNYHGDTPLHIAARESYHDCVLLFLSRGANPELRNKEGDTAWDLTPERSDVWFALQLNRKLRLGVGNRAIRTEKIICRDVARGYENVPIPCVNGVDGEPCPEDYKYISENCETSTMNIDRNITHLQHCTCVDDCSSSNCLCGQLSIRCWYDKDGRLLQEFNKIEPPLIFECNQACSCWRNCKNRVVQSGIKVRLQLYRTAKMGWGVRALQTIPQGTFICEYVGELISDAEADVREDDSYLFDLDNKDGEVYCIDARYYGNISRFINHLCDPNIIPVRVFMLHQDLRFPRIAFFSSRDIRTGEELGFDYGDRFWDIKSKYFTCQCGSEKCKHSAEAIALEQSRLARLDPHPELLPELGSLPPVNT
Nature of the data set: HKMT-inhibitor (HMT) assay, G9a. Particulars: recombinant HKMT, [3H]SAM, histone octamers or oligonucleosomes, average of duplicate. It is filed as biochemical, Mammalian. The method, then:
as §3
as §4, with “Coomassie blue stained histone bands were cut from the membrane and subjected to scintillation counting. All assays were performed in duplicate and the average of two experiments was used for the calculation of IC50 values. Only compounds with IC50<10 μM were selected for further experiments.” left out

[2] abbreviates: first of two values printed as x/y, read-out: IC50 EZH2 (first value of cell).
The mark [3] stands for this setting: second of two values printed as x/y, read-out: IC50 EZH2 (second value of cell).

pIC50: −log10 of the molar value. Where a name gives a salt, the structure may show the parent alone. Read-outs that look alike come from different tables or passages of the source.

A word on the melting point: it is the temperature of the solid-liquid transition. What is called pIC50 is the negative decadic logarithm of the IC50, by convention in mol/L.

T1 sequence (Q15910 whole entry, species assumed): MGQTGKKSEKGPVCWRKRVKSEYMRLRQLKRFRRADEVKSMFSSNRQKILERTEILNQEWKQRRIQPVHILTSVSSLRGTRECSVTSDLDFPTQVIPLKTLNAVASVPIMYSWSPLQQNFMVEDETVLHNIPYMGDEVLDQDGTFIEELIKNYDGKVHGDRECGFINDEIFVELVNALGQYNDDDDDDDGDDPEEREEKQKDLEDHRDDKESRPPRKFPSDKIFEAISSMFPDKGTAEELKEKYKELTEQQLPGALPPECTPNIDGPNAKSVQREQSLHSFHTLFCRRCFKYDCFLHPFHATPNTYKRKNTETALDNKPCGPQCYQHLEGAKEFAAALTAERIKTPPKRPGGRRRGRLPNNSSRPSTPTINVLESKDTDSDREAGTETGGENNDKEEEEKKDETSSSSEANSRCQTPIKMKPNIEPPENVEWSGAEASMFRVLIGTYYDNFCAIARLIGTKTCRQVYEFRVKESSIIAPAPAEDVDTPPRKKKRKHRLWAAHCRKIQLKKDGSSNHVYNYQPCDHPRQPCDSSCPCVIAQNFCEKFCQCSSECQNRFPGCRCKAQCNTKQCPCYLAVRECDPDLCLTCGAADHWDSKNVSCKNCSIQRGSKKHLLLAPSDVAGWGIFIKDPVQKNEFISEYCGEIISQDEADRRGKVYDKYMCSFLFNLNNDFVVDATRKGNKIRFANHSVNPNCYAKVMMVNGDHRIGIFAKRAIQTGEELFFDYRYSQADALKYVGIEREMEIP
T1 sequence (O75530 whole entry partner, species assumed): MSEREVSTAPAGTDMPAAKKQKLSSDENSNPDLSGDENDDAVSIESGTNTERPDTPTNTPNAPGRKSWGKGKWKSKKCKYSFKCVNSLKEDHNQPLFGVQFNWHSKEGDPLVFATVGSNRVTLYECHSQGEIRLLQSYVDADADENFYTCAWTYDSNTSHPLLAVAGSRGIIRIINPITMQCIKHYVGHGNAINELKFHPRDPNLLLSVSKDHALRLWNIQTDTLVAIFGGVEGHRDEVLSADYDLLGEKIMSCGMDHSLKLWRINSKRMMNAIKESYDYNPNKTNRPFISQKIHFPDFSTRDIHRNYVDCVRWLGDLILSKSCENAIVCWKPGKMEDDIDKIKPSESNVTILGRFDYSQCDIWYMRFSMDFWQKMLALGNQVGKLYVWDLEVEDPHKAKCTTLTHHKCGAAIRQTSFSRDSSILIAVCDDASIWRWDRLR
T1 sequence (Q15022 whole entry partner, species assumed): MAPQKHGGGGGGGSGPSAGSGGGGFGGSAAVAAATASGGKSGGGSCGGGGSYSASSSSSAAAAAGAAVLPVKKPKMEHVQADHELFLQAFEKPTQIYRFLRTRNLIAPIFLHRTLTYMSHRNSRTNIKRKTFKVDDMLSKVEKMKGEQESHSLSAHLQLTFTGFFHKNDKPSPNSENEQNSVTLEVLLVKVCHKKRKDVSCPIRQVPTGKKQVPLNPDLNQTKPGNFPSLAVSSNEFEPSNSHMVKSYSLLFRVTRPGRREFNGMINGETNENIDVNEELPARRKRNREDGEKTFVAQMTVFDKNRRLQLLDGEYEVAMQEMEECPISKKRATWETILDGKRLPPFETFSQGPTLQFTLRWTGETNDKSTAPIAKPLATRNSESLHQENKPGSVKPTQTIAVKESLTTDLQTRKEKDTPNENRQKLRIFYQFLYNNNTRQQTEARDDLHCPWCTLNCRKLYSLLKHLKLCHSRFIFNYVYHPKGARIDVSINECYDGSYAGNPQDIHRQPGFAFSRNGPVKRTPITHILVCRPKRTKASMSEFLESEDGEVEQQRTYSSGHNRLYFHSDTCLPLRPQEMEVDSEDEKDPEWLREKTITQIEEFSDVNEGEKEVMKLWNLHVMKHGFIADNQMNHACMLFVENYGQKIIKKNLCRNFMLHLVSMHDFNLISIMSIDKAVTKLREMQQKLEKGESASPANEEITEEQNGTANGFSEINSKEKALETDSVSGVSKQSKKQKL

In the case of `CCOC(=O)c1cc2c3c(cccc3c1)NC(=O)O2` [Compound 6, ethyl 2,3-dihydro-2-oxonaphtho[1,8-de][1,3]oxazine-8-carboxylate], the melting point is > 250 °C (dec.).

`Cc1cc(O)c(C(C)C)cc1C1(c2cc(C(C)C)c(O)cc2C)OC(=O)c2ccccc21` [Thymolphthalein, thymolphthalein]: the “other histone methylation marks (e.g. H3K27me3)” value in the data set on H3K27me3 was “not affected”. Besides, the pIC50 on EZH2 (setting [2]) is 4.60; on EZH2 (setting [3]) it was 3.40; at PRSET-7 it was 5.05; on SET7/9 it was under 2.84; on G9a, under 2.84. In data set [1], the “global histone H4 lysine 20 monomethylation (H4K20me1)” value is on record as “reproducible reduction”.

As for `Nc1ccc2c(O)cc(C(=O)O)cc2c1` (as salt: hydrochloride) [Compound 1a, 7-amino-4-hydroxy-2-naphthoic acid], the melting point was > 250 °C (dec.).

On to `Nc1cc(S(=O)(=O)O)cc2cc(S(=O)(=O)O)cc(O)c12` [H-acid], for which the pIC50 at EZH2 (setting [2]) is 5.52; at EZH2 (setting [3]), under 3.00; on PRSET-7, 5.42; at SET7/9, under 2.86; at G9a, under 3.30.
